Values of other authors as cited in patent publication US20230157586A1 (United States Government as Represented by the Department …, priority 2021, published 2023).
Numbering of substitutions follows the chain as printed.

Experiments:
[1] = biological target: T1, corticosteroid binding globulin (CBG) (Homo sapiens, UniProt P08185); details: 37° C.; same for each subject
T1 sequence (P08185 23-405): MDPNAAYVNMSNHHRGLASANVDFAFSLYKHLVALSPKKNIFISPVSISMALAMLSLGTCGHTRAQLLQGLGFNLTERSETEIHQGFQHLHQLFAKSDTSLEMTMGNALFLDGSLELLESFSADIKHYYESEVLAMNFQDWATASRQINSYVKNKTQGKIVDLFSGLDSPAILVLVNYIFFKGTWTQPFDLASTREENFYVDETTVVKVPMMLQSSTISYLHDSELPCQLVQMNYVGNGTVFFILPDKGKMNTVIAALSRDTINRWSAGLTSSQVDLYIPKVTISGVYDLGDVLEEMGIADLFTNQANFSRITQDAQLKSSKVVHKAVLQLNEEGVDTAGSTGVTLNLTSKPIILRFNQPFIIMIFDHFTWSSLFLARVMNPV

[2] = biological target: T2, mutant CBG protein (GLy237Val substitution, SERPINA6) (Homo sapiens, UniProt P08185, G259V); details: previously reported; higher equilibrium dissociation constant KD
T2 sequence (P08185 23-405 G259V): T1 sequence (P08185 23-405) with G237V

albumin = albumin (Homo sapiens, UniProt P02768); details: 37° C.; same for each subject
Sequence of albumin (P02768 25-609): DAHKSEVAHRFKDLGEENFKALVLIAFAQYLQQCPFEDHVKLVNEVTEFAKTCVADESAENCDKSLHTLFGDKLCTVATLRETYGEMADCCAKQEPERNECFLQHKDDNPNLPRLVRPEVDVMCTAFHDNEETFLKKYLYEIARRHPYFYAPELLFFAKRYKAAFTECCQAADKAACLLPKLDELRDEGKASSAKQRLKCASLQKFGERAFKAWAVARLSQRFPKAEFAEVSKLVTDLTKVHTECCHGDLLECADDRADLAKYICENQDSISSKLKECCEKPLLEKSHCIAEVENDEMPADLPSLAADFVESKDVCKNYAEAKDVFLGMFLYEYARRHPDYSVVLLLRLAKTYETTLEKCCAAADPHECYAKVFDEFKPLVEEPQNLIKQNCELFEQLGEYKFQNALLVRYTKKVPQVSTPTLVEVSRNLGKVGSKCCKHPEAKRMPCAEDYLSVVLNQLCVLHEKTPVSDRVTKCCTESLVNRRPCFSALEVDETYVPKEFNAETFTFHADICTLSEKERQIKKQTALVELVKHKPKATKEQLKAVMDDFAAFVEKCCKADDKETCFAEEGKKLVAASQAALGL

C[C@]12CCC(=O)C=C1CC[C@@H]1[C@@H]2[C@@H](O)C[C@@]2(C)[C@H]1CC[C@]2(O)C(=O)CO [cortisol]
κ1^C association rate constant (on-rate), CBG [1]: 3.62e+07 M/s | κ−1^C dissociation rate constant (off-rate), CBG [1]: 0.88 s⁻¹ | cortisol binding affinity of mutant CBG compared to wild type CBG protein [2]: markedly decreased cortisol binding affinity | κ1^A association rate constant (on-rate), albumin (albumin): 8950 M/s | κ−1^A dissociation rate constant (off-rate), albumin (albumin): 2.2 s⁻¹
